Measurements published in ChEMBL document CHEMBL5113453, “Design, synthesis, and biological evaluation of a new series of pyrazole derivatives: Discovery of potent and selective JNK3 kinase inhibitors” (Bioorg Med Chem, 2022).

What was measured:
HCT-116 = assay: Antiproliferative activity against human HCT-116 cells measured after 48 hrs by SRB assay; type: functional, cell-based; settings: for IC50: HCT-116, 48 h; for TGI: HCT-116, time 48 hrs
HepG2 = assay: Antiproliferative activity against human HepG2 cells measured by MTT assay; type: functional, cell-based
HOP-62 = assay: Antiproliferative activity against human HOP-62 cells measured after 48 hrs by SRB assay; type: functional, cell-based; settings: for IC50: HOP-62, 48 h; for TGI: HOP-62, time 48 hrs
HCT-15 = assay: Antiproliferative activity against human HCT-15 cells measured after 48 hrs by SRB assay; type: functional, cell-based; settings: for IC50: HCT-15, 48 h; for TGI: HCT-15, time 48 hrs
MOLT-4 = assay: Antiproliferative activity against human MOLT-4 cells measured after 48 hrs by SRB assay; type: functional, cell-based; settings: for IC50: MOLT-4, 48 h; for TGI: MOLT-4, time 48 hrs
NCI-H522 = assay: Antiproliferative activity against human NCI-H522 cells measured after 48 hrs by SRB assay; type: functional, cell-based; settings: for IC50: NCI-H522, 48 h; for TGI: NCI-H522, time 48 hrs
UACC-257 = assay: Antiproliferative activity against human UACC-257 cells measured after 48 hrs by SRB assay; type: functional, cell-based; settings: for IC50: UACC-257, 48 h; for TGI: UACC-257, time 48 hrs
SW-620 = assay: Antiproliferative activity against human SW-620 cells measured after 48 hrs by SRB assay; type: functional, cell-based; settings: for IC50: SW-620, 48 h; for TGI: SW-620, time 48 hrs
RPMI-8226 [1] = assay: Induction of apoptosis in human RPMI-8226 cells assessed as fold increase in caspase-3/7 activity at 6.12 uM; type: functional
CAKI-1 = assay: Antiproliferative activity against human CAKI-1 cells measured after 48 hrs by SRB assay; type: functional, cell-based; settings: for IC50: CAKI-1, 48 h; for TGI: CAKI-1, time 48 hrs
A549 = assay: Antiproliferative activity against human A549 cells measured after 48 hrs by SRB assay; type: functional, cell-based; settings: for IC50: A549, 48 h; for TGI: A549, time 48 hrs
Hs-578T = assay: Antiproliferative activity against human Hs-578T cells measured after 48 hrs by SRB assay; type: functional, cell-based; settings: for IC50: 48 h; for TGI: time 48 hrs
RXF 393 = assay: Antiproliferative activity against human RXF 393 cells measured after 48 hrs by SRB assay; type: functional, cell-based; settings: for IC50: RXF 393, 48 h; for TGI: RXF 393, time 48 hrs
MDA-MB-468 = assay: Antiproliferative activity against human MDA-MB-468 cells measured after 48 hrs by SRB assay; type: functional, cell-based; settings: for IC50: MDA-MB-468, 48 h; for TGI: MDA-MB-468, time 48 hrs
OVCAR-8 = assay: Antiproliferative activity against human OVCAR-8 cells measured after 48 hrs by SRB assay; type: functional, cell-based; settings: for IC50: OVCAR-8, 48 h; for TGI: OVCAR-8, time 48 hrs
EKVX = assay: Antiproliferative activity against human EKVX cells measured after 48 hrs by SRB assay; type: functional, cell-based; settings: for IC50: 48 h; for TGI: time 48 hrs
IGROV-1 = assay: Antiproliferative activity against human IGROV-1 cells measured after 48 hrs by SRB assay; type: functional, cell-based; settings: for IC50: IGROV-1, 48 h; for TGI: IGROV-1, time 48 hrs
NCI-H322M = assay: Antiproliferative activity against human NCI-H322M cells measured after 48 hrs by SRB assay; type: functional, cell-based; settings: for IC50: 48 h; for TGI: time 48 hrs
Hep 3B2 = assay: Antiproliferative activity against human Hep3B cells measured by MTT assay; type: functional, cell-based
NCI-H23 = assay: Antiproliferative activity against human NCI-H23 cells measured after 48 hrs by SRB assay; type: functional, cell-based; settings: for IC50: NCI-H23, 48 h; for TGI: NCI-H23, time 48 hrs
SF-268 = assay: Antiproliferative activity against human SF-268 cells measured after 48 hrs by SRB assay; type: functional, cell-based; settings: for IC50: SF-268, 48 h; for TGI: SF-268, time 48 hrs
K562 = assay: Antiproliferative activity against human K562 cells measured after 48 hrs by SRB assay; type: functional, cell-based; settings: for IC50: K562, 48 h; for TGI: K562, time 48 hrs
ACHN = assay: Antiproliferative activity against human ACHN cells measured after 48 hrs by SRB assay; type: functional, cell-based; settings: for IC50: 48 h; for TGI: time 48 hrs
RPMI-8226 [2] = assay: Induction of apoptosis in human RPMI-8226 cells assessed as fold increase in caspase-3/7 activity at 0.73 uM; type: functional
SK-MEL-5 = assay: Antiproliferative activity against human SK-MEL-5 cells measured after 48 hrs by SRB assay; type: functional, cell-based; settings: for IC50: SK-MEL-5, 48 h; for TGI: SK-MEL-5, time 48 hrs
[3] = target: Mitogen-activated protein kinase 10 (Homo sapiens, UniProt P53779); assay: Inhibition of JNK3 (unknown origin) at 1 uM relative to control
Sequence of Mitogen-activated protein kinase 10 (P53779 whole entry): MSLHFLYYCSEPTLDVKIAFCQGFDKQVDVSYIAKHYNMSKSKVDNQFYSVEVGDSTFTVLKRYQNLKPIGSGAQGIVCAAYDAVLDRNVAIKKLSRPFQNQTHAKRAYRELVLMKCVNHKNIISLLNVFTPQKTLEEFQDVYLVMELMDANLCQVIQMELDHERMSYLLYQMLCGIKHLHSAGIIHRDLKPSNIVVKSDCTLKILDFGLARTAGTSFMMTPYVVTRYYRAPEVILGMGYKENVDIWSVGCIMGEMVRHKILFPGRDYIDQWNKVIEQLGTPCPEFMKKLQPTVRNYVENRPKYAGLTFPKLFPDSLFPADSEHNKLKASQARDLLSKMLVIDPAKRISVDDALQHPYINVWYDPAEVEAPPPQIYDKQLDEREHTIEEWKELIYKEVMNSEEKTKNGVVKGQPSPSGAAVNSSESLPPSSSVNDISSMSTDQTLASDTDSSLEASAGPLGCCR

RPMI-8226 [4] = assay: Induction of necrosis in human RPMI-8226 cells assessed as LDH release at 0.73 uM; type: functional
PC-3 = assay: Antiproliferative activity against human PC-3 cells measured after 48 hrs by SRB assay; type: functional, cell-based; settings: for IC50: PC-3, 48 h; for TGI: PC-3, time 48 hrs

O=C(NCCCNc1cc(-c2cn(-c3ccccc3)nc2-c2cccc(O)c2)ccn1)Nc1cccc(C(F)(F)F)c1
IC50 (HCT-116): 1.97 µM | TGI (HCT-116): 6.33 µM | IC50 (HepG2): 6.42 µM | IC50 (HOP-62): 4.09 µM | TGI (HOP-62): 9.59 µM | IC50 (HCT-15): 1.06 µM | TGI (HCT-15): 4.32 µM | IC50 (MOLT-4): 1.67 µM | TGI (MOLT-4): 15 µM | IC50 (NCI-H522): 5.12 µM | TGI (NCI-H522): 11 µM | IC50 (UACC-257): 4.8 µM | TGI (UACC-257): 10.1 µM | IC50 (SW-620): 3.85 µM | TGI (SW-620): 8.31 µM | fold change (FC) (RPMI-8226 [1]): 2.83 | IC50 (CAKI-1): 1.9 µM | TGI (CAKI-1): 12.3 µM | IC50 (A549): 3.35 µM | TGI (A549): 11.2 µM | IC50 (Hs-578T): 1.34 µM | TGI (Hs-578T): 7.74 µM | IC50 (RXF 393): 1.08 µM | TGI (RXF 393): 4.96 µM | IC50 (MDA-MB-468): 1.61 µM | TGI (MDA-MB-468): 6.16 µM | IC50 (OVCAR-8): 3.88 µM | TGI (OVCAR-8): 10 µM | IC50 (EKVX): 3.5 µM | TGI (EKVX): 8.45 µM | IC50 (IGROV-1): 2.83 µM | TGI (IGROV-1): 7.98 µM | IC50 (NCI-H322M): 4.24 µM | TGI (NCI-H322M): 9.32 µM | IC50 (Hep 3B2): 4.9 µM | IC50 (NCI-H23): 4.34 µM | TGI (NCI-H23): 9.34 µM | IC50 (SF-268): 3.26 µM | TGI (SF-268): 9.69 µM | IC50 (K562): 1.26 µM | TGI (K562): > 14.5 µM | IC50 (ACHN): 5.24 µM | TGI (ACHN): 15.5 µM | fold change (FC) (RPMI-8226 [2]): 1.96 | IC50 (SK-MEL-5): 3.25 µM | TGI (SK-MEL-5): 7.17 µM | inhibition [3]: 73% | Activity (RPMI-8226 [4]): 6.7% | IC50 (PC-3): 1.79 µM | TGI (PC-3): 11.2 µM

COc1cccc(-c2nn(-c3ccccc3)cc2-c2ccnc(NCCCNC(=O)Nc3ccc(F)cc3)c2)c1
IC50 (HCT-116): 5.7 µM | TGI (HCT-116): 17 µM | IC50 (HOP-62): 14.7 µM | TGI (HOP-62): > 37 µM | IC50 (HCT-15): 7.64 µM | TGI (HCT-15): > 37 µM | IC50 (MOLT-4): 3.94 µM | TGI (MOLT-4): 19 µM | IC50 (NCI-H522): 5.07 µM | TGI (NCI-H522): 12 µM | IC50 (UACC-257): 7.05 µM | TGI (UACC-257): 16.9 µM | IC50 (SW-620): 8.02 µM | TGI (SW-620): > 37 µM | IC50 (CAKI-1): 8.63 µM | TGI (CAKI-1): > 37 µM | IC50 (A549): 9.95 µM | TGI (A549): > 37 µM | IC50 (Hs-578T): 6.24 µM | TGI (Hs-578T): 17.9 µM | IC50 (RXF 393): 6.02 µM | TGI (RXF 393): 28.6 µM | IC50 (MDA-MB-468): 4.83 µM | TGI (MDA-MB-468): 13 µM | IC50 (OVCAR-8): 10.6 µM | TGI (OVCAR-8): > 37 µM | IC50 (EKVX): 9.63 µM | TGI (EKVX): > 37 µM | IC50 (IGROV-1): 9.34 µM | TGI (IGROV-1): > 37 µM | IC50 (NCI-H322M): 9.58 µM | TGI (NCI-H322M): > 37 µM | IC50 (NCI-H23): 10.1 µM | TGI (NCI-H23): > 37 µM | IC50 (SF-268): 7.08 µM | TGI (SF-268): 30 µM | IC50 (K562): 2.96 µM | TGI (K562): > 37 µM | IC50 (ACHN): 10.6 µM | TGI (ACHN): > 37 µM | IC50 (SK-MEL-5): 5.64 µM | TGI (SK-MEL-5): 10.8 µM | inhibition [3]: 3% | IC50 (PC-3): 6.23 µM | TGI (PC-3): > 37 µM
